Data taken from US7915291B2, “Hepatitis C virus inhibitors” (Bristol-Myers Squibb Company, priority 2002, dated 2011).
Where two headings read alike, the source gives them in different places.

Columns and labels:
[1] = target: HCV NS3/4A protease complex, BMS strain (UniProt P27958, C1454S/C1711G, species not given/STRAIN_BMS); assay: Recombinant HCV NS3/4A protease complex FRET peptide assay (BMS strain); format: biochemical, HCV genotype 1a
In short: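 Percent inhibition taken from the linear-range fluorescence slope relative to uninhibited control, read kinetically for about 15 min at 25° C. Enzyme (2-3 nM, BMS NS3/4A complex, lysine-tailed, Ni-NTA purified) met compound for 1 min before 2 μM FRET depsipeptide substrate started cleavage.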

[2] = test system: HCV replicon in Huh7 cells; assay: HCV replicon cell-based assay; set-up: species or system HCV strain 1B; settings: Hepatitis C virus
Excerpt: HCV Replicon Cell-based Assay
This system enabled us to evaluate the effects of our HCV Protease compounds on HCV RNA replication. Briefly, using the HCV strain 1B sequence described in the Lohmann paper (Assession number:AJ238799), an HCV cDNA was generated encoding the 5′ internal ribosome entry site (IRES), the neomycin resistance gene, the EMCV (encephalomyocarditis virus)-IRES and the HCV nonstructural proteins, NS3-NS5B, and 3′ non-translated region (NTR). In vitro transcripts of the cDNA were transfected into the human hepatoma cell line, Huh7. […] Resulting cell lines were characterized for positive and negative strand RNA production and protein production over time.
Huh7 cells, constitutively expressing the HCV replicon, were grown in Dulbecco's Modified Eagle Media (DMEM) containing 10% Fetal calf serum (FCS) and 1 mg/ml G418 (Gibco-BRL). Cells were seeded the night before (1.5×10^4 cells/well) in 96-well tissue-culture sterile plates. Compound and no compound controls were prepared in DMEM containing 4% FCS, 1:100 Penicillin/Streptomysin, 1:100 L-glutamine and 5% DMSO in the dilution plate (0.5% DMSO final concentration in the assay). Compound/DMSO mixes were added to the cells and incubated for 4 days at 37° C. After 4 days, plates were rinsed thoroughly with Phosphate-Buffered Saline (PBS) (3 times 150 μl). The cells were lysed with 25 μl of a lysis assay reagent containing the FRET peptide (RET S1, as described for the in vitro enzyme assay). The lysis assay reagent was made from 5× cell Luciferase cell culture lysis reagent(Promega #E153A) diluted to 1× with distilled water, NaCl added to 150 mM final, the FRET peptide diluted to 10 μM final from a 2 mM stock in 100% DMSO. The plate was then placed into the Cytofluor 4000 instrument which had been set to 340 nm excitation/490 emission, automatic mode for 21 cycles and the plate read in a kinetic mode. EC50 determinations were carried out as described for the IC50 determinations.
Cells were lyzed using the Rneasy kit (Qiagen). […] All primers were designed with ABI Prism 7700 software and obtained from Biosearch Technologies, Novato, Calif. Samples containing known concentrations of HCV RNA transcript were run as standards. Using the following cycling protocol (50° C., 30 min; 95° C., 5 min; 40 cycles of 95° C., 15 sec, 60° C., 1 min), HCV RNA expression was quantitated as described in the Perkin Elmer manual using the ABI Prism 7700 Sequence Detector.

[3] = NS3/4A BMS strain; read-out: IC50 range
[4] = Huh-7, HCV replicon, Huh7 cells, read-out: EC50 range
[5] = read-out: IC50 range; NS3/4A BMS strain

| Structure (SMILES) | IC50 [1, 3] [nM] | EC50 [2, 4] [nM] | IC50 [1, 5] [nM] | EC50 ([2]; Huh-7, read-out: EC50 range) [nM] |
| --- | --- | --- | --- | --- |
| C=C[C@@H]1C[C@]1(NC(=O)[C@@H]1C[C@@H](Oc2nc(C#N)cc3ccccc23)CN1C(=O)[C@@H](NC(=O)OC(C)(C)C)C(C)(C)C)C(=O)NS(=O)(=O)C1CC1 [Compound 32] | < 100 | < 100 | – | – |
| C=C[C@@H]1C[C@]1(NC(=O)[C@@H]1C[C@@H](Oc2nc(C)cc3ccccc23)CN1C(=O)[C@@H](NC(=O)OC(C)(C)C)C(C)(C)C)C(=O)NS(=O)(=O)C1CC1 [Compound 33] | < 100 | < 100 | – | – |
| C=C[C@@H]1C[C@]1(NC(=O)[C@@H]1C[C@@H](Oc2nc(OC)cc3ccccc23)CN1C(=O)[C@@H](NC(=O)OC(C)(C)C)C(C)(C)C)C(=O)NS(=O)(=O)C1CC1 [Compound 35] | < 100 | < 100 | – | – |
| C=C[C@@H]1C[C@]1(NC(=O)[C@@H]1C[C@@H](Oc2nc(-c3ccccc3)cc3cc(OC)ccc23)CN1C(=O)[C@@H](NC(=O)OC(C)(C)C)C(C)(C)C)C(=O)NS(=O)(=O)C1CC1 [Compound 36] | – | – | < 100 | < 100 |
| C=C[C@@H]1C[C@]1(NC(=O)[C@@H]1C[C@@H](Oc2nc(-c3nccs3)cc3cc(OC)ccc23)CN1C(=O)[C@@H](NC(=O)OC(C)(C)C)C(C)(C)C)C(=O)NS(=O)(=O)C1CC1 [Compound 37] | < 100 | < 100 | – | – |
| C=C[C@@H]1C[C@]1(NC(=O)[C@@H]1C[C@@H](Oc2nc(-c3cc(OC)no3)cc3cc(OC)ccc23)CN1C(=O)[C@@H](NC(=O)OC(C)(C)C)C(C)(C)C)C(=O)NS(=O)(=O)C1CC1 [Compound 38] | < 100 | < 100 | – | – |
| C=C[C@@H]1C[C@]1(NC(=O)[C@@H]1C[C@@H](Oc2nc(-c3ncc(OC)o3)cc3cc(OC)ccc23)CN1C(=O)[C@@H](NC(=O)OC(C)(C)C)C(C)(C)C)C(=O)NS(=O)(=O)C1CC1 [Compound 39] | < 100 | < 100 | – | – |
| C=C[C@@H]1C[C@]1(NC(=O)[C@@H]1C[C@@H](Oc2nc(Cl)cc3cc(OC)ccc23)CN1C(=O)[C@@H](NC(=O)OC(C)(C)C)C(C)(C)C)C(=O)NS(=O)(=O)C1CC1 [Compound 40] | < 100 | 100 to 1000 | – | – |
| C=C[C@@H]1C[C@]1(NC(=O)[C@@H]1C[C@@H](Oc2nc(-c3ccoc3)cc3cc(OC)ccc23)CN1C(=O)[C@@H](NC(=O)OC(C)(C)C)C(C)(C)C)C(=O)NS(=O)(=O)C1CC1 [Compound 41] | < 100 | < 100 | – | – |
| C=C[C@@H]1C[C@]1(NC(=O)[C@@H]1C[C@@H](Oc2nccc3cc(OCC)ccc23)CN1C(=O)[C@@H](NC(=O)OC(C)(C)C)C(C)(C)C)C(=O)NS(=O)(=O)C1CC1 [Compound 42] | < 100 | < 100 | – | – |
| C=C[C@@H]1C[C@]1(NC(=O)C1CC(Oc2nc(-c3ccccc3)nc3ccccc23)CN1C(=O)[C@@H](NC(=O)OC(C)(C)C)C(C)(C)C)C(=O)NS(=O)(=O)C1CC1 (stereo partly shown) [Compound 47] | < 100 | 100 to 1000 | – | – |
| C=C[C@@H]1C[C@]1(NC(=O)C1C[C@@H](Oc2nc(-c3ccccc3)nc3ccc(OC)cc23)CN1C(=O)[C@@H](N)C(C)(C)C)C(=O)NS(=O)(=O)C1CC1 (stereo partly shown) [Compound 50] | 100 to 1000 | 1000 to 10000 | – | – |
| C=C[C@@H]1C[C@]1(NC(=O)[C@@H]1C[C@@H](Nc2nc(-c3ccccc3)cs2)CN1C(=O)[C@@H](NC(=O)OC(C)(C)C)C(C)(C)C)C(=O)NS(=O)(=O)C1CC1 [Compound 53] | 100 to 1000 | 1000 to 10000 | – | – |
| C=C[C@@H]1C[C@]1(NC(=O)[C@@H]1CC(Oc2nccc3cc(OC)ccc23)CN1C(=O)[C@@H](NC(=O)C1CCCC1)C(C)(C)C)C(=O)NS(=O)(=O)C1CC1 (stereo partly shown) [Compound 56] | < 100 | < 100 | – | – |
| C=C[C@@H]1C[C@]1(NC(=O)[C@@H]1CC(Oc2nccc3cc(OC)ccc23)CN1C(=O)[C@@H](NC(=O)C(CC)CC)C(C)(C)C)C(=O)NS(=O)(=O)C1CC1 (stereo partly shown) [Compound 57] | < 100 | 100 to 1000 | – | – |
| C=C[C@@H]1CC1(NC(=O)[C@@H]1CC(Oc2nccc3cc(OC)ccc23)CN1C(=O)[C@@H](NC(=O)CC1CC1)C(C)(C)C)C(=O)NS(=O)(=O)C1CC1 (stereo partly shown) [Compound 58] | – | < 100 | < 100 | – |

| Structure (SMILES) | IC50 [1, 3] [nM] | EC50 [2, 4] [nM] | IC50 [1, 5] [nM] | EC50 ([2]; Huh-7, read-out: EC50 range) [nM] |
| --- | --- | --- | --- | --- |
| C=C[C@@H]1C[C@]1(NC(=O)[C@@H]1CC(Oc2nccc3cc(OC)ccc23)CN1C(=O)[C@@H](NC(=O)COC)C(C)(C)C)C(=O)NS(=O)(=O)C1CC1 (stereo partly shown) [Compound 59] | < 100 | 100 to 1000 | – | – |
| C=C[C@@H]1CC1(NC(=O)[C@@H]1CC(Oc2nccc3cc(OC)ccc23)CN1C(=O)[C@@H](NC(=O)CO[C@H]1C[C@@H](C)CC[C@@H]1C(C)C)C(C)(C)C)C(=O)NS(=O)(=O)C1CC1 (stereo partly shown) [Compound 60] | < 100 | 1000 to 10000 | – | – |
| C=C[C@@H]1CC1(NC(=O)[C@@H]1CC(Oc2nccc3cc(OC)ccc23)CN1C(=O)[C@@H](NC(=O)CO[C@@H]1C[C@H](C)CC[C@H]1C(C)C)C(C)(C)C)C(=O)NS(=O)(=O)C1CC1 (stereo partly shown) [Compound 61] | 100 to 1000 | 1000 to 10000 | – | – |
| C=C[C@@H]1C[C@]1(NC(=O)[C@@H]1CC(Oc2nccc3cc(OC)ccc23)CN1C(=O)[C@@H](NC(=O)C1C2CC1C2)C(C)(C)C)C(=O)NS(=O)(=O)C1CC1 (stereo partly shown) [Compound 62] | < 100 | < 100 | – | – |
| C=C[C@@H]1C[C@]1(NC(=O)[C@@H]1CC(Oc2nccc3cc(OC)ccc23)CN1C(=O)[C@@H](NC(=O)c1cnccn1)C(C)(C)C)C(=O)NS(=O)(=O)C1CC1 (stereo partly shown) [Compound 63] | < 100 | 1000 to 10000 | – | – |
| C=C[C@@H]1CC1(NC(=O)[C@@H]1CC(Oc2nccc3cc(OC)ccc23)CN1C(=O)[C@@H](NC(=O)OCc1ccccc1)C(C)(C)C)C(=O)NS(=O)(=O)C1CC1 (stereo partly shown) [Compound 64] | – | < 100 | < 100 | – |
| C=C[C@@H]1CC1(NC(=O)[C@@H]1CC(Oc2nccc3cc(OC)ccc23)CN1C(=O)[C@@H](NC(=O)O[C@H]1C[C@@H](C)CC[C@@H]1C(C)C)C(C)(C)C)C(=O)NS(=O)(=O)C1CC1 (stereo partly shown) [Compound 65] | < 100 | 100 to 1000 | – | – |
| C=C[C@@H]1CC1(NC(=O)[C@@H]1CC(Oc2nccc3cc(OC)ccc23)CN1C(=O)[C@@H](NC(=O)O[C@@H]1C[C@H](C)CC[C@H]1C(C)C)C(C)(C)C)C(=O)NS(=O)(=O)C1CC1 (stereo partly shown) [Compound 66] | < 100 | 100 to 1000 | – | – |
| C=C[C@@H]1C[C@]1(NC(=O)[C@@H]1CC(Oc2nccc3cc(OC)ccc23)CN1C(=O)[C@@H](NC(=O)OC(C)(C)CC)C(C)(C)C)C(=O)NS(=O)(=O)C1CC1 (stereo partly shown) [Compound 67] | < 100 | < 100 | – | – |
| C=C[C@@H]1C[C@]1(NC(=O)[C@@H]1CC(Oc2nccc3cc(OC)ccc23)CN1C(=O)[C@@H](NC(=O)OC(C)(C)C(Cl)(Cl)Cl)C(C)(C)C)C(=O)NS(=O)(=O)C1CC1 (stereo partly shown) [Compound 68] | < 100 | < 100 | – | – |
| C=C[C@@H]1CC1(NC(=O)[C@@H]1CC(Oc2nccc3cc(OC)ccc23)CN1C(=O)[C@@H](NC(=O)OC1(C)CCCC1)C(C)(C)C)C(=O)NS(=O)(=O)C1CC1 (stereo partly shown) [Compound 69] | – | < 100 | < 100 | – |
| C=C[C@@H]1CC1(NC(=O)[C@@H]1CC(Oc2nccc3cc(OC)ccc23)CN1C(=O)[C@@H](NC(=O)OC1CCCC1)C(C)(C)C)C(=O)NS(=O)(=O)C1CC1 (stereo partly shown) [Compound 70] | < 100 | < 100 | – | – |
| C=C[C@@H]1C[C@]1(NC(=O)[C@@H]1CC(Oc2nccc3cc(OC)ccc23)CN1C(=O)[C@@H](NC(=O)OC1CCC1)C(C)(C)C)C(=O)NS(=O)(=O)C1CC1 (stereo partly shown) [Compound 71] | < 100 | < 100 | – | – |
| C=C[C@@H]1C[C@]1(NC(=O)[C@@H]1CC(Oc2nccc3cc(OC)ccc23)CN1C(=O)[C@@H](NC(=O)OC(C)(C)c1ccccc1)C(C)(C)C)C(=O)NS(=O)(=O)C1CC1 (stereo partly shown) [Compound 72] | < 100 | 100 to 1000 | – | – |
| C=C[C@@H]1C[C@]1(NC(=O)[C@@H]1CC(Oc2nccc3cc(OC)ccc23)CN1C(=O)[C@@H](NC(=O)OC(C)(C)c1ccc(C(F)(F)F)cc1)C(C)(C)C)C(=O)NS(=O)(=O)C1CC1 (stereo partly shown) [Compound 73] | < 100 | 100 to 1000 | – | – |
| C=C[C@@H]1CC1(NC(=O)[C@@H]1CC(Oc2nccc3cc(OC)ccc23)CN1C(=O)[C@@H](NC(=O)NC1CCCC1)C(C)(C)C)C(=O)NS(=O)(=O)C1CC1 (stereo partly shown) [Compound 75] | < 100 | < 100 | – | – |
